Test results reported in publication PMC4301037, “Identification and Structure–Function Analysis of Subfamily Selective G Protein-Coupled Receptor Kinase Inhibitors” (ACS Chemical Biology, 2014).

molecular target: T1, bovine GRK5 (Bos taurus, UniProt P43249); assay: Primary DSF inhibitor screen, GRK5; format: binding; details: 10 μM compound, 2 μM kinase, relative to DMSO control
T1 construct: when using full-length kinases as the receptor[37] instead of isolated kinase domains; made in house
T1 sequence (P43249 whole entry, the tested form may be a part): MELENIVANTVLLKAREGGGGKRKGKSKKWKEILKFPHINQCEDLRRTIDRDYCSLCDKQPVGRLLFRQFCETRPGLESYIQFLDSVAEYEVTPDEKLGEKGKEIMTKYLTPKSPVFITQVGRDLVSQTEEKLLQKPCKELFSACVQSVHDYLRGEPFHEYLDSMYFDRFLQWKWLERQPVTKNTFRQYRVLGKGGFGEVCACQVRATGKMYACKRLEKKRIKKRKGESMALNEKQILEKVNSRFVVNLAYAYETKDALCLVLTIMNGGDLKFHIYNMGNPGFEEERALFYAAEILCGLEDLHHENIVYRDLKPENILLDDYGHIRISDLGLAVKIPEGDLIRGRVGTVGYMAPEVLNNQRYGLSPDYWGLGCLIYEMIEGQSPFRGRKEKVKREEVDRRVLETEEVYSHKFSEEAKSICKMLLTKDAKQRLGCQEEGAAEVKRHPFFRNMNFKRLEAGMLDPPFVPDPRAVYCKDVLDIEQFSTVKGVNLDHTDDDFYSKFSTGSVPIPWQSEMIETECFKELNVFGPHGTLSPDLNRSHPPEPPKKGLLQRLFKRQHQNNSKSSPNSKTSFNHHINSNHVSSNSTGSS

SMILES | ΔTm, primary screen, GRK5 [°C]
Nc1nc(Nc2ccc(S(N)(=O)=O)cc2)nn1C(=O)c1c(F)cccc1F [Aurora/Cdk Inhibitor] | 5.41
O=C1NC(=NCc2cccs2)S/C1=C\c1ccc2ncccc2c1 [RO-3306] | 5.48
CN(C)CCCn1cc(C2=C(c3c[nH]c4ccccc34)C(=O)NC2=O)c2ccccc21.Cl [BIM I, 2-[1-(3-Dimethylaminopropyl)-1H-indol-3-yl]-3-(1H-indol-3-yl)maleimide, HCl] | 6.45
Cc1cncc2cccc(S(=O)(=O)N3CCCNC[C@@H]3C)c12 [H-1152, (S)-(+)-2-Methyl-1-[(4-methyl-5-isoquinolinyl)sulfonyl]homopiperazine] | 5.95
CC(C)(C)c1nc2c3ccc(F)cc3c3c(=O)[nH]ccc3c2[nH]1 [JAK Inhibitor I, 2-(1,1-Dimethylethyl)-9-fluoro-3,6-dihydro-7H-benz[h]-imidaz[4,5-f]isoquinolin-7-one] | 8.13
Brc1c(Br)c(Br)c2[nH]nnc2c1Br [4,5,6,7-Tetrabromobenzo-triazole] | 8.22
Cc1cc(C=C2C(=O)C=CC2=O)cc(C)c1O [TX-1918, 2-((3,5-dimethyl-4-hydroxyphenyl)-methylene)-4-cyclopentene-1,3-dione] | 2.21
O=C1c2ccccc2-c2n[nH]c3cccc1c23 [JNK Inhibitor II, Anthra[1,9-cd]pyrazol-6(2H)-one] | 2.19
O=C1NC(=O)C(c2c[nH]c3ccccc23)=C1c1c[nH]c2ccccc12 [BIM 4, bisindolylmaleimide IV] | 3.11

same assay, conditions: 10 μM compound, 2 μM kinase, relative to DMSO control; read-out: ΔTm, primary screen, GRK5

SMILES | ΔTm at 10 µM [°C]
CCNC(=O)O[C@H]1CN[C@H](C#Cc2cc3ncnc(Nc4ccc(OCc5cccc(F)c5)c(Cl)c4)c3s2)C1 [GSK192082A] | 2.97
CN1CC[C@H](c2c(O)cc(O)c3c(=O)cc(-c4ccccc4Cl)oc23)[C@H](O)C1 [Flavopiridol] | 4.13
CCS(=O)(=O)c1ccc(OC)c(Nc2ncc(-c3ccccc3Cl)o2)c1 [GW622055X] | 2.14
CC(C)[C@H](CO)Nc1nc(Nc2cccc(Cl)c2)c2ncn(C(C)C)c2n1 [Purvalanol A, 2-(1R-Isopropyl-2-hydroxyethylamino)-6-(3-chloroanilino)-9-isopropyl-purine] | 6.44
COc1cc(C)c(N(C)C(=O)CN(C)C)cc1Nc1nc(Nc2cccc(F)c2C(N)=O)c2cc[nH]c2n1 [GSK2219385A] | 3.58
NS(=O)(=O)c1ccc(Nc2cc(-c3cccc(O)c3)n[nH]2)cc1 [GW831090X] | 2.96
O=C1Nc2ccccc2/C1=C1\CCc2cc(O)ccc21 [GR105659X] | 3.25
CS(=O)(=O)CCNCc1coc(-c2ccc3ncnc(Nc4ccc(OCc5ccccc5)cc4)c3c2)c1 [GW566221A] | 2.58
COc1ccc2c(c1)/C(=C/c1cnc[nH]1)C(=O)N2 [SU9516, 3-[1-(3H-Imidazol-4-yl)-meth-(Z)-ylidene]-5-methoxy-1,3-dihydro-indol-2-one] | 3.59
COc1cc(N2CCN(C(C)C)CC2)ccc1Nc1nc(Nc2ccc(F)cc2C(N)=O)c2cc[nH]c2n1 [GSK1220512A] | 3.05
NS(=O)(=O)c1ccc(NC=C2C(=O)Nc3ccc4ncsc4c32)cc1 [GW589933X] | 4.8
Nc1ncnc2occ(-c3ccc(NC(=O)Nc4cc(C(F)(F)F)ccc4F)cc3)c12 [GW770249X] | 3.19
Cn1cc(C=C2C(=O)Nc3cccnc32)c2ccccc21 [GW441756X] | 2.82
COC(=O)Nc1nc2ccc(Oc3cccc(NC(=O)Nc4cc(C(F)(F)F)ccc4F)c3)cc2[nH]1 [GW659386A] | 2.51
C[C@@H](Oc1cc(-n2cnc3ccc(OCC4CCN(C)CC4)cc32)sc1C(N)=O)c1ccccc1C(F)(F)F [GSK326090A] | 2.06
CN(C)C(=O)O[C@@H]1CN[C@@H](C#Cc2cc3ncnc(Nc4ccc(OCc5cccc(F)c5)c(Cl)c4)c3s2)C1 [GSK238063A] | 2.93
Nc1nc(-c2ccc(F)cc2)c(-c2ccc3ncccc3n2)s1 [GW785804X] | 3.16
Nc1ncnc2occ(-c3ccc(NC(=O)Nc4cccc(C(F)(F)F)c4)cc3)c12 [GW795493X] | 4.96
c1ccc(COc2ccc(Nc3ncnc4ccc(-c5ccco5)cc34)cc2)cc1 [GW284372X] | 3.6
